The results in this text go back to patent US20030055244A1, “Pyridyl-containing spirocyclic compounds as inhibitors of fibrinogen-dependent platelet aggregation” (priority 1999, published 2003).

Where two headings read alike, the source gives them in different places.

As a reminder, the IC50 is the concentration that inhibits the measured activity by half.

In assay [1] the test system is human platelet-rich plasma. The assay can be described thus: Platelet aggregation assay (Aggregation-Human PRP/ADP). In kind it is cell-based. As for the experimental part: Platelet-rich plasma was prepared from healthy human volunteers for use in determining inhibition of platelet aggregation by the compounds.
Platelet-rich plasma was prepared at room temperature by centrifugation of the citrated whole blood at 100 × g for twelve minutes. The platelet rich plasma contained approximately 200-400,000 platelets/μl.
Platelet aggregation was assayed in a 4-channel platelet aggregation profiler (PAP-4, Biodata, Hatboro, Pa.) according to the manufacturers directions. Inhibition of platelet aggregation was studied by adding varying amounts of adenosine diphosphate (ADP) to stirred human platelet-rich plasma. Specifically, the human platelet-rich plasma was incubated with the compound being tested for 1 minute at 37° C. prior to the addition of a variety of aggregating agents most often ADP 5 μM to 20 μM, but also 1 μg/ml collagen, 1 μM U46619 and 0.3 μM platelet activating factor.

The target of the next assay is T1, GPIIb-IIIa (Homo sapiens, UniProt P05106+P08514).
T1 construct: Purified platelet GPIIb-IIIa receptor was prepared as described by Fitzgerald; from tissue; host or cells: platelets
T1 sequence (P08514 32-887 limits assumed): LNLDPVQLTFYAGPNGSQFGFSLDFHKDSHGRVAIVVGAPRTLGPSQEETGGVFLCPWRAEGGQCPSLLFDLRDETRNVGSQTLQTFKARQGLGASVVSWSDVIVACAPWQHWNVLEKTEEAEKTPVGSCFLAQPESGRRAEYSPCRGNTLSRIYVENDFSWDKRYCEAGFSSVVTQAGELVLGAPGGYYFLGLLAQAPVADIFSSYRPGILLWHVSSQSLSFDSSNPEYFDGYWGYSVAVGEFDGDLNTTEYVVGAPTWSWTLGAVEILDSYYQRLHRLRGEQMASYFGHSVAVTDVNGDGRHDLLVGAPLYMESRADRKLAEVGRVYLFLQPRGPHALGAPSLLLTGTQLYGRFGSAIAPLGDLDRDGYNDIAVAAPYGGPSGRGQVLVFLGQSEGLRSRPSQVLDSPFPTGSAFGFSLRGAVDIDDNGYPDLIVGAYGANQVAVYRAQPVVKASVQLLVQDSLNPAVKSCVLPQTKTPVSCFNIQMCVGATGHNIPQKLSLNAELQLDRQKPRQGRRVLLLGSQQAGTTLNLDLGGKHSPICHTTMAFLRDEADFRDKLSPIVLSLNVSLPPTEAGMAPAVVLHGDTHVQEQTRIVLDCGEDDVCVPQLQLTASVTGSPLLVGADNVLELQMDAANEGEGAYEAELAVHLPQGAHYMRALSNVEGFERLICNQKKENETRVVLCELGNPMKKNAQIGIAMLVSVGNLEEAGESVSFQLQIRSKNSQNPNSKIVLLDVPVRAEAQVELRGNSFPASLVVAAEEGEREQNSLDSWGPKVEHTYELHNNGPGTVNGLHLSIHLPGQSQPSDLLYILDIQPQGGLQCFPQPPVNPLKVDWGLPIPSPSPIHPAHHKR
T1 sequence (P08514 891-1039 limits assumed): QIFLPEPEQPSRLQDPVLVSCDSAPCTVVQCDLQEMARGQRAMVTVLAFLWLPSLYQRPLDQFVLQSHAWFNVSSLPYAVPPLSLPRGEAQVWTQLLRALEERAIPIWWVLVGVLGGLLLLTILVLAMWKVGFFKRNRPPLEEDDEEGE
T1 sequence (P05106 27-788): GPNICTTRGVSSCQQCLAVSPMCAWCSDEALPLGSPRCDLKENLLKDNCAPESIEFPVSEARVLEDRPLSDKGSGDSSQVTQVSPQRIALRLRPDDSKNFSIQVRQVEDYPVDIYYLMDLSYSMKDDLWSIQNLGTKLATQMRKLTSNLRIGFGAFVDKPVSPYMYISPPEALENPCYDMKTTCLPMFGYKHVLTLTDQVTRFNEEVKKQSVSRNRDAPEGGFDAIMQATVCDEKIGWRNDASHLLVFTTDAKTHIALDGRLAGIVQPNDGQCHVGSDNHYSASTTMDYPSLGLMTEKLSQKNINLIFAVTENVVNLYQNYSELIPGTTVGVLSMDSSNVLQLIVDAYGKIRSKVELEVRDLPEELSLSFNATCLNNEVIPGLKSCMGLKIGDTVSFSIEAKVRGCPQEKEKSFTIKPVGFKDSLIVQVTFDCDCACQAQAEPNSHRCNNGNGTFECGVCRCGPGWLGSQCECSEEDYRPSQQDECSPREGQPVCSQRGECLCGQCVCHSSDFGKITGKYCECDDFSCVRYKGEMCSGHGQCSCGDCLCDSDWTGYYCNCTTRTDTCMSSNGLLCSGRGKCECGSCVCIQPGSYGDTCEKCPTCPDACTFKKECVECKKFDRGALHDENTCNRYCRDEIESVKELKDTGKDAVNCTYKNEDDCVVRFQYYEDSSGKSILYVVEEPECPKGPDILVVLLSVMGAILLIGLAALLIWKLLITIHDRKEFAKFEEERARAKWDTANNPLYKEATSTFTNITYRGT
The assay can be described thus: ELISA IIb-IIIa assay (fibrinogen binding to immobilized purified GPIIb-IIIa). The settings on record: inhibition of fibrinogen binding to purified GPIIb-IIIa. As for the experimental part: No. 1 - The ELISA IIb-IIIa Assay
PIIb-IIIa is coated onto microtiter plates. The coated support is then contacted with fibrinogen and with the test material (e.g., compounds of Formula I) and incubated for a sufficient time to permit maximal binding of fibrinogen to the immobilized GPIIb- Ila. Fibrinogen is typically provided at a concentration of about 5-50 nM and the test material can, if desired, be added at a series of dilution. Typical incubations are 2 to 4 hours at 25° C., the time and temperature being interdependent.
After incubation, the solution containing the fibrinogen and test material is removed and the level of binding of fibrinogen measured by quantitating bound fibrinogen to GPIIb-IIIa. Any suitable means of detection may be used, but it is convenient to employ labeled fibrinogen, for example using biotinylated labels. Such methods are well known in the art.
A. Description of Assays—Plate Assays
After purification, the receptors were stored in 0.1% Triton X-100 at 0.1-1.0 mg/ml.
The receptors were coated to the wells of 96-well flat-bottom ELISA plates (Linbro EIA-Plus microtiter plate, Flow Laboratories) after diluting 1:200 with a solution of 20 mM Tris-HCl, 150 mM NaCl, 1 mM CaCl2, pH 7.4, to reduce the Triton X-100 concentration to below its critical micellar concentration and adding an aliquot of 100 ul to each well. The wells were all allowed to incubate overnight at 4° C., and then aspirated to dryness. Additional sites were blocked by the addition of bovine serum albumin (BSA) at 35 mg/ml in the above buffer for two hours at 30° C. to prevent nonspecific binding. The wells were then washed once with binding buffer ([…] Tris-HCl, 100 mM NaCl 2 mM CaCl2, 1 mg/ml BSA).
The corresponding ligands (fibrinogen, von Willebrand Factor, or vitronectin) were conjugated to biotin using commercially available reagents and standard protocols. The labeled ligands were added to the receptor-coated wells at final concentration of 10 nM (100 ul/well) and incubated for 3 hours at 25° C. in the presence or absence of the test samples. After incubation, the wells are aspirated to dryness and bound ligand is quantitated.
Decreased color development is observed in wells incubated with test samples which inhibit binding of ligand to receptor.
For orientation: In an ELISA, binding on a coated surface is turned into a signal by an enzyme label.

Where [2] appears, read: read-out: PRP (ADP-Citrate) IC50.

With `O=C(O)COC1CCN(CC(=O)N2CCC3(CC2)CCN(c2ccncc2)C3)CC1` [Example 50, 2-[(1-{2-oxo-2-[2-(4-pyridyl)-2,8-diazaspiro[4.5]dec-8-yl]ethyl}-4-piperidyl)oxyl]acetic acid], in assay [1] (read-out: PRP IC50), the IC50 was found to be 80000 nM.

Take `O=C(O)CCCCCCC(=O)N1CCC2(CC1)CCN(c1ccncc1)CC2` [Example 4, 8-oxo-8-(9-(4-pyridyl)-3,9-diazaspiro[5.5]undec-3-yl)octanoic acid]: the IC50 at GPIIb-IIIa amounted to 1160 nM; in assay [1] (read-out: PRP IC50) it was 18000 nM.

Take `O=C(O)CS(=O)(=O)N1CCC(C(=O)N2CCC3(CC2)CCN(c2ccncc2)C3)CC1` [Example 51, ethyl 2-[(4-{[2-(4-pyridyl)-2,8-diazaspiro[4.5]dec-8-yl]carbonyl}-piperidino)sulfonyl]acetic acid]: the 50% inhibitory concentration (IC50) was determined as 94 nM at GPIIb-IIIa and 938 nM in assay [1] (setting [2]).

Consider `O=C(O)CN1CCN(C(=O)N2CCC3(CC2)CCN(c2ccncc2)C3)CC1=O` [Example 29, 2-(2-oxo-4-((2-(4-pyridyl)-2,8-diazaspiro[4.5]dec-8-yl)carbonyl)piperazino)acetic acid], for which the values for the IC50 (at GPIIb-IIIa; in assay [1] (setting [2])) were 122 nM and 2650 nM, respectively.

In the case of `CCCCOC(=O)N[C@@H](CCC(=O)N1CCC2(CCN(c3ccncc3)CC2)C1)C(=O)O` [Example 21, (2S)-2-[(butoxycarbonyl)amino]-5-oxo-5-[8-(4-pyridyl)-2,8-diazaspiro [4.5]dec-2-yl]pentanoic acid], the IC50 on GPIIb-IIIa turned out to be 162 nM; in assay [1] (setting [2]), 5700 nM.

As for `O=C(O)CN1CCC(CC(=O)N2CCC3(CC2)CCN(c2ccncc2)C3)CC1` [Example 33, 2-(4-{2-oxo-2-[2-(4-pyridyl)-2,8-diazaspiro[4.5]dec-8-yl]ethyl}piperidino)acetic acid], the 50% inhibitory concentration (IC50) in assay [1] (setting [2]) was 80000 nM.

With `O=C(O)CCCCCC(=O)N1CCC2(CC1)CCN(c1ccncc1)CC2` [Example 3, 7-oxo-7-(9-(4-pyridyl)-3,9-diazaspiro[5.5]undec-3-yl)heptanoic acid], the concentration for half-maximal inhibition (IC50) on GPIIb-IIIa is 265 nM; in assay [1] (read-out: PRP IC50), 4500 nM.

For the molecule `Cc1noc(C)c1S(=O)(=O)N[C@@H](CCC(=O)N1CCC2(CC1)CCN(c1ccncc1)CC2)C(=O)O` [Example 8, 2(S)-2-{[(3,5-dimethyl-4-isoxazolyl)sulfonyl]amino}-5-oxo-5-[9-(4-pyridyl)-3,9-diazaspiro [5.5]undec-3-yl]pentanoic acid], the half-maximal inhibitory concentration (IC50) was 2 nM on GPIIb-IIIa and 21 nM in assay [1] (read-out: PRP IC50).

Take `O=C(O)CC(=O)N1CCCN(C(=O)N2CCC3(CC2)CCN(c2ccncc2)C3)CC1` [Example 43, 3-oxo-3-(4-{[2-(4-pyridyl)-2,8-diazaspiro[4.5]dec-8-yl]carbonyl}-1,4-diazepan-1-yl) propanoic acid]: the IC50 on GPIIb-IIIa turned out to be 25 nM; in assay [1] (read-out: PRP IC50) it was 697 nM.

As for `O=C(O)CC(=O)NC1CCN(C(=O)N2CCC3(CC2)CCN(c2ccncc2)C3)C1` (stereo not drawn) [Example 47, 3-oxo-3-[(1-{[2-(4-pyridyl)-2,8-diazaspiro[4.5]dec-8-yl]carbonyl}-tetrahydro-1H-3-pyrrolyl)amino]propanoic acid], the values for the IC50 (on GPIIb-IIIa; in assay [1] (read-out: PRP IC50)) were 447 nM and 5860 nM, respectively.

In the case of `O=C(O)CCN1CCN(C(=O)N2CCC3(CCN(c4ccncc4)CC3)C2)CC1=O` [Example 25, 3-(2-oxo-4-((8-(4-pyridyl)-2,8-diazaspiro[4.5]dec-2-yl)carbonyl)piperazino)propanoic acid], the IC50 in assay [1] (setting [2]) turned out to be 8300 nM.

For the molecule `O=C(O)CCNC(=O)N1CCC2(CC1)CCN(c1ccncc1)C2` [Example 55, 3-({[2-(4-pyridyl)-2,8-diazaspiro[4.5]dec-8-yl]carbonyl}amino)propanoic acid], the IC50 at GPIIb-IIIa amounted to 28900 nM; in assay [1] (setting [2]), 34600 nM.

In the case of `CC(CC(=O)O)NC(=O)C1CCC2(CC1)CCN(c1ccncc1)CC2` (stereo not drawn) [Example 17, 3-({[3-(4-pyridyl)-3-azaspiro[5.5]undec-9-yl]carbonyl}amino)butanoic acid], in assay [1] (read-out: PRP (ADP) IC50), the IC50 turned out to be 14800 nM.

As for `O=C(O)Cn1ccc2cc(C(=O)N3CCC4(CC3)CCN(c3ccncc3)C4)ccc21` [Example 53, 2-(5-{[2(4-pyridyl)-2,8-diazaspiro[4,5]dec-8-yl]carbonyl}-1H-1-indolyl) acetic acid], the IC50 at GPIIb-IIIa was determined as 47 nM; in assay [1] (setting [2]), 952 nM.

With `O=C(O)CC(=O)N1CCC(C(=O)N2CCC3(CCN(c4ccncc4)CC3)C2)CC1` [Example 19, 3-oxo-3-(4-{[8-(4-pyridyl)-2,8-diazaspiro[4.5]dec-2-yl]carbonyl}piperidino)propanoic acid], the 50% inhibitory concentration (IC50) on GPIIb-IIIa turned out to be 28 nM; in assay [1] (setting [2]), 1600 nM.

For the molecule `CCCCOC(=O)N[C@@H](CNC(=O)C1CCC2(CC1)CCN(c1ccncc1)CC2)C(=O)O` [Example 16, (2S)-2-{[(butyloxyl)carbonyl]amino}-3-({[3-(4-pyridyl)-3-azaspiro[5.5]undec-9-yl]carbonyl}amino)propanoic acid], the IC50 in assay [1] (read-out: PRP (ADP) IC50) was 1880 nM.

As to `CN(CC(=O)O)C1CCN(C(=O)N2CCC3(CC2)CCN(c2ccncc2)C3)CC1` [Example 46, 2-[methyl(1-{[2-(4-pyridyl)-2,8-diazaspiro[4.5]dec-8-yl]carbonyl}-4-piperidyl)amino]acetic acid], in assay [1] (read-out: PRP IC50), the IC50 is 10000 nM.

Regarding `CCCCS(=O)(=O)N[C@@H](CCC(=O)N1CCC2(CC1)CCN(c1ccncc1)CC2)C(=O)O` [Example 6, 2(S)-2-[(butylsulfonyl)amino]-5-oxo-5-[9-(4-pyridyl)-3,9-diazaspiro [5.5]undec-3-yl]pentanoic acid], in assay [1] (read-out: PRP IC50), the IC50 amounted to 790 nM.

For `O=C(O)CN1CCC(N2CCC3(CCN(c4ccncc4)C3)CC2)CC1` [Example 32, 2-{4-(2-(4-pyridyl)-2,8-diazaspiro[4.5]dec-8-yl]piperidino}acetic acid], the 50% inhibitory concentration (IC50) in assay [1] (setting [2]) came to 9500 nM.

`CC(CNC(=O)C1CCC2(CC1)CCN(c1ccncc1)CC2)CC(=O)O` (stereo not drawn) [Example 18, 3-methyl-4-({[3-(4-pyridyl)-3-azaspiro[5.5]undec-9-yl]carbonyl}amino) butanoic acid]: the IC50 in assay [1] (read-out: PRP (ADP) IC50) came out at 3000 nM.

For `Cc1ccc(S(=O)(=O)N[C@@H](CCC(=O)N2CCC3(CC2)CCN(c2ccncc2)CC3)C(=O)O)cc1` [Example 7, 2(S)-2-{[(4-methylphenyl)sulfonyl]amino}-5-oxo-5-[9-(4-pyridyl)-3,9-diazaspiro [5.5]undec-3-yl]pentanoic acid], the IC50 in assay [1] (read-out: PRP IC50) was 77 nM.

With `CCCCOC(=O)N[C@@H](CCC(=O)N1CCC2(CC1)CCN(c1ccncc1)C2)C(=O)O` [Example 35, (2S)-2-[(butoxycarbonyl)amino]-5-oxo-5-[2-(4-pyridyl)-2,8-diazaspiro [4.5]dec-8-yl]pentanoic acid], in assay [1] (setting [2]), the IC50 was 4000 nM.

`O=C(O)COc1ccc(C(=O)N2CCC3(CC2)CCN(c2ccncc2)C3)cc1` [Example 52, 2-(4-{[2-(4-pyridyl)-2,8-diazaspiro[4.5]dec-8-yl]carbonyl}phenoxy) acetic acid]: the half-maximal inhibitory concentration (IC50) in assay [1] (setting [2]) was 11300 nM.

As for `O=C(O)CCCCC(=O)N1CCC2(CCN(c3ccncc3)CC2)C1` [Example 22, 6-oxo-6-(8-(4-pyridyl)-2,8-diazaspiro[4.5]dec-2-yl)hexanoic acid], in assay [1] (setting [2]), the 50% inhibitory concentration (IC50) was above 80000 nM.

With `O=C(O)CCN1CCN(C(=O)N2CCC3(CC2)CCN(c2ccncc2)C3)CC1=O` [Example 30, 3-(2-oxo-4-((2-(4-pyridyl)-2,8-diazaspiro[4.5]dec-8-yl)carbonyl)piperazino)propanoic acid], the IC50 in assay [1] (setting [2]) came out at 1290 nM.
